In ChEMBL document CHEMBL5131375, “Recent Developments in the Use of Kinase Inhibitors for Management of Viral Infections” (J Med Chem, 2022):

Experiments:
Cytomegalovirus = experiment: Antiviral activity against CMV; format: functional, organism-based; settings: Human betaherpesvirus 5
[1] = Cytotoxicity against HSG cells; format: toxicity, cell-based; settings: human
Zika virus [2] = experiment: microbe, parasite or virus in culture
in vitro [3] = settings: human
Marburgvirus [4] = experiment: microbe, parasite or virus in culture; format: functional, organism-based; settings: Orthomarburgvirus
Nipah virus [5] = experiment: microbe, parasite or virus in culture; format: functional, organism-based; settings: Henipavirus nipahense
Lassa virus = experiment: microbe, parasite or virus in culture; format: functional, organism-based; settings: Mammarenavirus lassaense, A549
Zika virus [6] = experiment: Antiviral activity against ZIKV-PRVABC59 infected in Neuronal cell line measured after 24 hrs; format: functional, organism-based
Ebolavirus [7] = experiment: microbe, parasite or virus in culture; format: functional, organism-based; settings: Orthoebolavirus
Nipah virus [8] = experiment: microbe, parasite or virus in culture; format: functional, organism-based, HEK293T; settings: Henipavirus nipahense, HEK-293T
Zika virus [9] = experiment: Antiviral activity against ZIKV-PRVABC59 infected in human Huh-7 cells measured after 24 hrs; format: functional, organism-based; settings: PRVABC59, Huh-7, 24 h
Ebolavirus [10] = experiment: microbe, parasite or virus in culture; format: functional, organism-based; settings: Orthoebolavirus, Huh-7
Marburgvirus [11] = experiment: microbe, parasite or virus in culture; format: functional, organism-based; settings: Orthomarburgvirus, Huh-7
in vitro [12] = settings: human, MDM cells
[13] = molecular target: Cyclin-dependent kinase 4 (Homo sapiens, UniProt P11802)
Cyclin-dependent kinase 4, sequence (P11802 whole entry): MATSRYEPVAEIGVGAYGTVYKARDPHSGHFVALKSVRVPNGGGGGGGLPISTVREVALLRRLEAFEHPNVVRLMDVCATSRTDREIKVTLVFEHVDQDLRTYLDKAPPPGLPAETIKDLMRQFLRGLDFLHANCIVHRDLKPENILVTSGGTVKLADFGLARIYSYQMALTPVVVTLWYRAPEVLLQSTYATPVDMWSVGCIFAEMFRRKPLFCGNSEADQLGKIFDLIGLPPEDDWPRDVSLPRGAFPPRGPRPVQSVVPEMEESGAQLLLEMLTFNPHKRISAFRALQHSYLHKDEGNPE

[14] = test system: Human immunodeficiency virus 1; experiment: microbe, parasite or virus in culture; format: functional, organism-based
Human alphaherpesvirus 3 = experiment: microbe, parasite or virus in culture; format: functional, organism-based
[15] = test system: Human immunodeficiency virus 2; experiment: microbe, parasite or virus in culture; format: functional, organism-based
in vitro [16] = settings: human, PBMC
[17] = test system: Human immunodeficiency virus; experiment: Antiviral activity against HIV p24 assessed as extracellular antigen accumulation in primary macrophage at 25 uM; format: functional
[18] = test system: Mammarenavirus choriomeningitidis; format: functional; settings: dose 0.5-5 µM
in vitro [19] = settings: human, hek-293t
in vitro [20] = settings: human, l132
Human coronavirus 229E [21] = experiment: Antiviral activity against HCoV-229E assessed as reduction of viral RNA level at 4 uM relative control; format: functional; parameters: scale not given: the % may be the effect or the level left
[22] = Cytotoxicity against human LN-18 cells; format: toxicity, cell-based
Zika virus [23] = experiment: Antiviral activity against ZIKV at 1 uM relative to control; format: functional
in vitro [24] = settings: human, sertoli cell
[25] = Cytotoxicity against microglia (unknown origin) cells; format: toxicity, cell-based
dengue virus type 2 [26] = experiment: microbe, parasite or virus in culture; format: functional, organism-based
dengue virus type 2 [27] = experiment: Antiviral activity against DENV2 infected in hamster BHK-21 cells; format: functional
[28] = Cytotoxicity against human JEG-3 cells; format: toxicity, cell-based
Aurora kinase B = Aurora kinase B (Homo sapiens, UniProt Q96GD4); experiment: Inhibition of aurora B kinase (unknown origin)
Aurora kinase B, sequence (Q96GD4 whole entry): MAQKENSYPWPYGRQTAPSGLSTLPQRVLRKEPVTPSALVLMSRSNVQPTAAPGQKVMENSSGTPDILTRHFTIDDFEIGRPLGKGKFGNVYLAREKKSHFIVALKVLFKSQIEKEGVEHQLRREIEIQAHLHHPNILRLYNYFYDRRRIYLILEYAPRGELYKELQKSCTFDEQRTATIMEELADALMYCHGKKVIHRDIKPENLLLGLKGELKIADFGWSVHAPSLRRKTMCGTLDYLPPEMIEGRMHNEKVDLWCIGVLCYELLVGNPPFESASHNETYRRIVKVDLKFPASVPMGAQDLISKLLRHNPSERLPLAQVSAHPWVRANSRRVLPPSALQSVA

Dengue virus = experiment: microbe, parasite or virus in culture; settings: Huh-7
[29] = test system: Middle East respiratory syndrome-related coronavirus; experiment: microbe, parasite or virus in culture
Human coronavirus 229E [30] = experiment: microbe, parasite or virus in culture
Human coronavirus 229E [31] = experiment: microbe, parasite or virus in culture; remark: listed apart in the source
[32] = test system: Feline infectious peritonitis virus; experiment: microbe, parasite or virus in culture; settings: Alphacoronavirus 1
[33] = test system: Middle East respiratory syndrome-related coronavirus; experiment: microbe, parasite or virus in culture; remark: listed apart in the source
[34] = molecular target: Cyclin-dependent kinase 9 (Homo sapiens, UniProt P50750); experiment: Inhibition of CDK9 (unknown origin) incubated for 2 hrs by measuring remaining ATP
Cyclin-dependent kinase 9, sequence (P50750 whole entry): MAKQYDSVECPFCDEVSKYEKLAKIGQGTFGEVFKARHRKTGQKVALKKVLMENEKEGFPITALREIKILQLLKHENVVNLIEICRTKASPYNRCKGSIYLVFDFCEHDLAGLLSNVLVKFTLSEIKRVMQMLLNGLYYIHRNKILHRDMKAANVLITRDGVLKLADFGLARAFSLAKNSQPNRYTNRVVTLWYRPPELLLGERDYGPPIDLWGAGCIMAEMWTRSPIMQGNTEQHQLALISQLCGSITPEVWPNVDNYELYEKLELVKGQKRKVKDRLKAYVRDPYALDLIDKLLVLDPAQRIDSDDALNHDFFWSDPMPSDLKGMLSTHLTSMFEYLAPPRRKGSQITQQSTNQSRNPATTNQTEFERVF

in vitro [35] = settings: human, HeLa cells
Hepatitis B virus [36] = experiment: Antiviral activity against HBV infected in human HepG2-hNTCP cells; format: functional, organism-based
Human alphaherpesvirus 1 [37] = experiment: Antiviral activity against ACV-resistant HSV-1 in African green monkey Vero cells measured after 2 days; format: functional, organism-based; settings: Human alphaherpesvirus 1, Vero, 48 h
[38] = Cytotoxicity against human HepG2 cells; format: toxicity, cell-based
Human alphaherpesvirus 1 [39] = experiment: In vivo antiviral activity against HSV-1 infected in organism (unknown origin) assessed as suppression of skin lesions at 10% ointment treatment; format: functional
Human alphaherpesvirus 1 [40] = experiment: microbe, parasite or virus in culture; format: functional, organism-based
Hepatitis B virus [41] = experiment: microbe, parasite or virus in culture; format: functional, organism-based; settings: Hepatitis B virus

## Cc1oncc1C(=O)Nc1ccc(C(F)(F)F)cc1 [LEFLUNOMIDE]
Cytomegalovirus
  EC50: 40000 nM
[1]
  CC50: 20800 nM

## NCC(=O)Nc1ccc(-n2nc(C(F)(F)F)cc2-c2ccc3c(ccc4ccccc43)c2)cc1 [AR-12]
Zika virus [2]
  IC50: < 2000 nM
In vitro [3]; Huh-7 cells
  CC50: > 10000 nM
Marburgvirus [4]
  EC50: 300 nM
Nipah virus [5]
  EC50: 300 nM
Lassa virus
  EC50: 500 nM
Zika virus [6]
  IC50: 2000 nM
Ebolavirus [7]
  EC50: 300 nM
Nipah virus [8]
  EC50: 300 nM
Zika virus [9]
  IC50: 2000 nM
Ebolavirus [10]
  EC50: 300 nM
Marburgvirus [11]
  EC50: 300 nM

## CC(C)[C@H](CO)Nc1nc(Nc2cccc(Cl)c2)c2ncn(C(C)C)c2n1 [PURVALANOLA]
In vitro [12]
  CC50: 18700 nM
[13]
  IC50: 4 nM
[14]
  EC50: 2210 nM
Human alphaherpesvirus 3
  EC50: 1000 nM

## N#CC[C@H](C1CCCC1)n1cc(-c2ncnc3[nH]ccc23)cn1 [RUXOLITINIB]
[15]
  EC50: 200 nM
In vitro [16]
  CC50: > 100000 nM
[14]
  EC50: 300 nM

## Cn1c(=O)n(-c2ccc(C(C)(C)C#N)cc2)c2c3cc(-c4cnc5ccccc5c4)ccc3ncc21 [DACTOLISIB]
[17]
  Activity: 83%
[18]
  log(activity): 2
In vitro [19]
  CC50: > 5000 nM

## C[S+]([O-])c1ccc(-c2nc(-c3ccc(F)cc3)c(-c3ccncc3)[nH]2)cc1 (stereo unspecified) [SB-203580]
In vitro [20]
  CC50: > 10000 nM
Human coronavirus 229E [21]
  Activity: 60%

## C1=C/COCc2cc(ccc2OCCN2CCCC2)Nc2nccc(n2)-c2cccc(c2)COC/1 [PACRITINIB]
[22]
  CC50: > 1000 nM

## Nc1nc(Nc2ccc3c(c2)CC[C@@H](N2CCCC2)CC3)nn1-c1cc2c(nn1)-c1ccccc1CCC2 [BEMCENTINIB]
Zika virus [23]
  Activity: 75%
In vitro [24]
  CC50: > 10000 nM

## NC(=O)c1cccc(-c2cc(Nc3ccc(OC(F)(F)F)cc3)ncn2)c1
[25]
  CC50: 20000 nM
Dengue virus type 2 [26]
  IC50: 15000 nM
Dengue virus type 2 [27]
  IC90: 15000 nM

## c1cncc(CN2CCC(n3ncc4c(N5CCOCC5)nc(-c5ccc6[nH]ccc6c5)nc43)CC2)c1
Zika virus [2]
  EC50: 2280 nM
  IC50: 2300 nM
[28]
  CC50: > 10000 nM
Aurora kinase B
  IC50: 250 nM

## CN1CCN(CCOc2cc(OC3CCOCC3)c3c(Nc4c(Cl)ccc5c4OCO5)ncnc3c2)CC1 [SARACATINIB]
In vitro [3]; huh-7
  CC50: 74000 nM
Dengue virus type 2 [26]
  EC50: 12200 nM
Dengue virus
  EC50: 12200 nM
[29]
  EC50: 2900 nM
Human coronavirus 229E [30]
  EC50: 2400 nM
Human coronavirus 229E [31]
  EC50: 2400 nM
[32]
  EC50: 7000 nM
[33]
  EC50: 2900 nM

## Fc1ccc(N2CCCCC2)c(NC(=S)c2ccncc2)c1
[34]
  IC50: 5800 nM
In vitro [35]
  CC50: > 10000 nM
Hepatitis B virus [36]
  IC50: 330 nM
Human alphaherpesvirus 1 [37]
  IC50: 690 nM
[38]
  CC50: > 50000 nM
Human alphaherpesvirus 1 [39]
  Activity: 100%
Human alphaherpesvirus 1 [40]
  EC50: 690 nM
Hepatitis B virus [41]
  EC50: 330 nM
